Results from ChEMBL document CHEMBL5500417, “Discovery of Novel 2-Oxoacetamide Derivatives as B3GAT3 Inhibitors for the Treatment of Hepatocellular Carcinoma” (J Med Chem, 2024).

What was measured:
MHCC97H [1] = assay: cells; settings: Homo sapiens, 72 h
Description: Antitumor activity against human MHCC97H cells assessed as inhibition of cell growth measured after 72 hrs by CCK-8 assay

HCCLM3 [2] = assay: cells; settings: Homo sapiens, HCCLM3, 72 h
Description: Antitumor activity against human HCCLM3 cells assessed as inhibition of cell growth measured after 72 hrs by CCK-8 assay

[3] = target: T1, Galactosylgalactosylxylosylprotein 3-beta-glucuronosyltransferase 3 (Homo sapiens, UniProt O94766); assay: Binding affinity to CM5 sensor chip immobilized human B3GAT3 assessed as dissociation constant by SPR analysis
T1 sequence (O94766 whole entry): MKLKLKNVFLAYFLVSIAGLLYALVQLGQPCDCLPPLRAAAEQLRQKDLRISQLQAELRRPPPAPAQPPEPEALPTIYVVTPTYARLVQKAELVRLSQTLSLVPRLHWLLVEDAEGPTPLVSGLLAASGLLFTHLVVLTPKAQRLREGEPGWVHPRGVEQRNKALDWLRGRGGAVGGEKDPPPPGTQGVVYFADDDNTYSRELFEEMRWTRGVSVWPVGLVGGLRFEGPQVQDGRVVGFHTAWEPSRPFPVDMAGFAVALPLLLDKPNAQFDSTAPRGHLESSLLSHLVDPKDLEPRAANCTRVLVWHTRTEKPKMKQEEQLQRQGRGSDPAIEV

MHCC97H [4] = assay: In vivo-antitumor activity against human MHCC97H cells xenografted BALB/c mouse model assessed as tumor growth inhibitor at 5 mg/kg, IG once daily measured after 31 days relative to control; settings: po, 744 h, read-out: TGI
HCCLM3 [5] = assay: In vivo-antitumor activity against human HCCLM3 cells xenografted BALB/c mouse model assessed as reduction in tumor weight at 5 mg/kg, IG once daily measured after 31 days relative to control; settings: HCCLM3, po, 744 h, read-out: INH

Row | IC50 (MHCC97H [1]) [µM] | IC50 (HCCLM3 [2]) [µM] | Kd [3] [µM] | SMILES | inhibition in vivo at 5 mg/kg (MHCC97H [4]) [%] | inhibition in vivo at 5 mg/kg (HCCLM3 [5]) [%]
1 | 18.5 | 26.7 | – | Cc1ccc(C(=O)N2[C@@H]3CC[C@H]2CN(C(=O)C(=O)c2c[nH]c4ccc(Br)cc24)C3)c(Cl)c1 | – | –
2 | 72.2 | > 80 | – | Cc1ccc(N2CCC(NC(=O)C(=O)c3c[nH]c4ccc(O)cc34)C2=O)c(Cl)c1 (centres undefined) | – | –
3 | 16.3 | 25.4 | – | Cc1ccc(C(=O)N2CCN(C(=O)C(=O)c3c[nH]c4ccc(Br)cc34)CC2)c(Cl)c1 | – | –
4 | > 80 | > 80 | – | Cc1ccc(N2CCC(NC(=O)C(=O)c3c[nH]c4ccc(C(=O)O)cc34)C2=O)c(Cl)c1 (centres undefined) | – | –
5 | 9.7 | > 80 | – | Cc1ccc(N2CCC(NC(=O)C(=O)Nc3ccc4c(c3)C(C)(C)c3ccccc3-4)C2=O)c(Cl)c1 (centres undefined) | – | –
6 | > 80 | > 80 | – | Cc1ccc(N2CCC(NC(=O)C(=O)c3c[nH]c4ccc(N)cc34)C2=O)c(Cl)c1 (centres undefined) | – | –
7 | 11.8 | 22.2 | – | Cc1ccc(C(=O)N(C)C2CCN(C(=O)C(=O)c3c[nH]c4ccc(Br)cc34)CC2)c(Cl)c1 | – | –
8 | 21.3 | 22.2 | – | Cc1ccc(C(=O)N2CCC(C)(NC(=O)C(=O)c3c[nH]c4ccc(Br)cc34)CC2)c(Cl)c1 | – | –
9 | 6.19 | 15.8 | 113 | Cc1ccc(N2CCC(NC(=O)C(=O)c3c[nH]c4ccc(Br)cc34)C2=O)c(Cl)c1 (centres undefined) | – | –
10 | > 80 | > 80 | – | Cc1ccc(N2CCC(NC(=O)C(=O)N3CCCc4ccccc43)C2=O)c(Cl)c1 (centres undefined) | – | –
11 | > 80 | > 80 | – | Cc1ccc(N2CCC(NC(=O)C(=O)c3c[nH]c4ccc(Br)cc34)C2=O)cc1 (centres undefined) | – | –
12 | > 80 | 57.3 | – | Cc1ccc(N2CCC(NC(=O)CC(=O)Nc3ccc4c(c3)Cc3ccccc3-4)C2=O)c(Cl)c1 (centres undefined) | – | –
13 | 28.1 | 1530 | – | Cc1ccc(C(=O)N2CCC(NC(=O)C(=O)c3c[nH]c4ccc(Br)cc34)CC2)c(Cl)c1 | – | –
14 | 37.8 | 34.7 | – | COc1ccc2[nH]cc(C(=O)C(=O)NC3CCN(c4ccc(C)cc4Cl)C3=O)c2c1 (centres undefined) | – | –
15 | 46.8 | 54.8 | – | COC(=O)c1ccc2c(C(=O)C(=O)NC3CCN(c4ccc(C)cc4Cl)C3=O)c[nH]c2c1 (centres undefined) | – | –
16 | 61.5 | 60.8 | – | Cc1ccc(C(=O)NC2CCN(C(=O)C(=O)c3c[nH]c4ccc(Br)cc34)CC2)c(Cl)c1 | – | –
17 | 11.8 | 24.9 | – | O=C(NC1CCN(c2ccc(F)cc2)C1=O)C(=O)c1c[nH]c2ccc(Br)cc12 (centres undefined) | – | –
18 | 27.3 | 59.2 | – | Cc1ccc(C(=O)NC2(C)CCN(C(=O)C(=O)c3c[nH]c4ccc(Br)cc34)CC2)c(Cl)c1 | – | –
19 | 52.7 | 60 | – | Cc1ccc(N2CCC(NC(=O)C(=O)c3c[nH]c4ccccc34)C2=O)c(Cl)c1 (centres undefined) | – | –
20 | 35.1 | 44.3 | – | Cc1ccc(N2CCC(NC(=O)C(=O)c3c[nH]c4ccc(F)cc34)C2=O)c(Cl)c1 (centres undefined) | – | –

Row | IC50 (MHCC97H [1]) [µM] | IC50 (HCCLM3 [2]) [µM] | Kd [3] [µM] | SMILES | inhibition in vivo at 5 mg/kg (MHCC97H [4]) [%] | inhibition in vivo at 5 mg/kg (HCCLM3 [5]) [%]
21 | > 80 | 61.4 | – | Cc1ccc(N2CCC(NC(=O)C(=O)NC3CCc4ccccc43)C2=O)c(Cl)c1 (centres undefined) | – | –
22 | > 80 | > 80 | – | O=C(NC1CCN(c2ccccc2)C1=O)C(=O)c1c[nH]c2ccc(Br)cc12 (centres undefined) | – | –
23 | > 80 | > 80 | – | Cc1ccc(N2CCC(NC(=O)C(=O)c3c[nH]c4cc(C(=O)O)ccc34)C2=O)c(Cl)c1 (centres undefined) | – | –
24 | 17 | 31 | – | Cc1ccc(C(=O)N2CCCC(NC(=O)C(=O)c3c[nH]c4ccc(Br)cc34)C2)c(Cl)c1 (centres undefined) | – | –
25 | 52.8 | 53.9 | – | Cc1ccc(N2CCC(NC(=O)C(=O)c3c[nH]c4ccc(C)cc34)C2=O)c(Cl)c1 (centres undefined) | – | –
26 | 18.4 | 31 | – | Cc1ccc(N2CCC(NC(=O)C(=O)c3c[nH]c4ccc(Cl)cc34)C2=O)c(Cl)c1 (centres undefined) | – | –
27 | 14.3 | 14.5 | 291 | Cc1ccc(N2CCC(NC(=O)C(=O)Nc3ccc4c(c3)Cc3ccccc3-4)C2=O)c(Cl)c1 (centres undefined) | – | –
28 | 25.7 | 24.7 | – | Cc1ccc(N2CCC(NC(=O)C(=O)Nc3ccc4c(c3)OCO4)C2=O)c(Cl)c1 (centres undefined) | – | –
29 | 12 | > 80 | – | Cc1ccc(N2CCC(NC(=O)C(=O)c3c[nH]c4ccc(Br)cc34)C2=O)cc1Cl (centres undefined) | – | –
30 | 12.9 | 23.6 | – | Cc1ccc(C(=O)NCC2CCN(C(=O)C(=O)c3c[nH]c4ccc(Br)cc34)CC2)c(Cl)c1 | – | –
31 | 3.51 | 11.7 | 206 | Cc1ccc(N2CCC(NC(=O)C(=O)Nc3ccc4c(c3)CCC4)C2=O)c(Cl)c1 (centres undefined) | – | –
32 | 54.7 | 60.4 | – | Cc1ccc(N2CCC(NC(=O)CC(=O)Nc3ccc(-c4ccccc4)cc3)C2=O)c(Cl)c1 (centres undefined) | – | –
33 | 19.4 | 30.8 | – | Cc1ccc(C(=O)NC2CCN(C(=O)C(=O)c3c[nH]c4ccc(Br)cc34)C2)c(Cl)c1 (centres undefined) | – | –
34 | 15.3 | 18.6 | – | O=C(NC1CCN(c2ccc(OC(F)(F)F)cc2)C1=O)C(=O)c1c[nH]c2ccc(Br)cc12 (centres undefined) | – | –
35 | 33.7 | 55.8 | – | Cc1ccc(N2CCC(NC(=O)C(=O)c3c[nH]c4ccc(C#N)cc34)C2=O)c(Cl)c1 (centres undefined) | – | –
36 | 13 | 21.3 | – | Cc1ccc(C(=O)N2CCC(NC(=O)C(=O)c3c[nH]c4ccc(Br)cc34)C2)c(Cl)c1 (centres undefined) | – | –
37 | 5.59 | 17.7 | 289 | Cc1ccc(N2CCC(NC(=O)C(=O)Nc3ccc(-c4ccccc4)cc3)C2=O)c(Cl)c1 (centres undefined) | – | –
38 | 14.5 | 12.2 | – | Cc1ccc(N2CCC(NC(=O)C(=O)Nc3ccc4c(c3)OCCO4)C2=O)c(Cl)c1 (centres undefined) | – | –
39 | > 80 | 27.8 | – | COc1cc2nccc(Oc3ccc(NC(=O)NC4CC4)c(Cl)c3)c2cc1C(N)=O [LENVATINIB] | 85 | 94.6
